Experimental findings from US8530489B2 (Vertex Pharmaceuticals Incorporated, priority 2006, dated 2013) are described below.

The target in this test is PLK1 (Homo sapiens, UniProt P53350). Description: PLK1 Inhibition Assay I (radioactive-phosphate incorporation). To be noted: Ki(app); PLK1 Inhibition Assay I or II (table does not say which). The test is classed as biochemical. The protocol: The compounds of the present invention are evaluated as inhibitors of human PLK kinase using the following assays.
Compounds were screened for their ability to inhibit PLK1 using a radioactive-phosphate incorporation assay. Assays were carried out in a mixture of 25 mM HEPES (pH 7.5), 10 mM MgCl2, and 1 mM DTT. Final substrate concentrations were 350 μM [γ-33P]ATP (136 mCi 33P ATP/mmol ATP, Amersham Pharmacia Biotech/Sigma Chemicals) and 450 μM peptide (KKKISDELMDATFADQEAK) [SEQ. ID:1]. Assays were carried out at 25° C. in the presence of 2 nM PLK1. An assay stock buffer solution was prepared containing all of the reagents listed above, with the exception of ATP and the test compound of interest. 30 μL of the stock solution was placed in a 96 well plate followed by addition of 2 μL of DMSO stock containing serial dilutions of the test compound (typically starting from a final concentration of 10 μM with 2-fold serial dilutions) in duplicate (final DMSO concentration 5%). The plate was pre-incubated for 10 minutes at 25° C. and the reaction initiated by addition of 8 μL [γ-33P]ATP (final concentration 350 μM).
The reaction was stopped after 240 minutes by the addition of 100 μL 0.14M phosphoric acid. A multiscreen phosphocellulose filter 96-well plate (Millipore, Cat No. MAPHN0B50) was pretreated with 100 μL 0.1 M phosphoric acid prior to the addition of 125 μL of the stopped assay mixture. The plate was washed with 4×200 μL 0.1 M phosphoric acid. After drying, 100 μL Optiphase ‘SuperMix’ liquid scintillation cocktail (Perkin Elmer) was added to the well prior to scintillation counting (1450 Microbeta Liquid Scintillation Counter, Wallac).
After removing mean background values for all of the data points, Ki(app) data were calculated from non-linear regression analysis of the initial rate data using the Prism software package (GraphPad Prism version 3.0cx for Macintosh, GraphPad Software, San Diego Calif., USA).

Sequence of PLK1 (P53350 whole entry): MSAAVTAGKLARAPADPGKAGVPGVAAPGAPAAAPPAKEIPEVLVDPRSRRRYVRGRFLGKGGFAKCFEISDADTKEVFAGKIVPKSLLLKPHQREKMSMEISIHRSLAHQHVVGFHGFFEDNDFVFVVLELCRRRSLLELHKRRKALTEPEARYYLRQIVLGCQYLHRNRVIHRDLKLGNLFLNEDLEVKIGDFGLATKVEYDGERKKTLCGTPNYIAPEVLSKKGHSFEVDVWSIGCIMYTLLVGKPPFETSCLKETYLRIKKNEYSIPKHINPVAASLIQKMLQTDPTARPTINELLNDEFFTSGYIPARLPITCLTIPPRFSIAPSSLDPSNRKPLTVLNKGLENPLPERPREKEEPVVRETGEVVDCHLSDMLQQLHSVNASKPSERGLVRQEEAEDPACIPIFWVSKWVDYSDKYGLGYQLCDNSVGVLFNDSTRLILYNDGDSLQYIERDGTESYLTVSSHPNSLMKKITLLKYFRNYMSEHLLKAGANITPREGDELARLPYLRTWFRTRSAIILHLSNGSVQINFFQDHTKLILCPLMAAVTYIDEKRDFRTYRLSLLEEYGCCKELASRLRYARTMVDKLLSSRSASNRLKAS

For the compound `CC(C)(C)OC(=O)N1CCC(CNc2ncc(C#N)c(-c3c[nH]c4ncc(C(F)(F)F)cc34)n2)CC1` [Compound I-28, tert-butyl 4-((5-cyano-4-(5-(trifluoromethyl)-1H-pyrrolo[2,3-b]pyridin-3-yl)pyrimidin-2-ylamino)methyl)piperidine-1-carboxylate], the Ki was above 40 nM.
The same measure for `N#Cc1cnc(NCC2CCCCC2)nc1-c1c[nH]c2ncc(C(F)(F)F)cc12` [Compound I-29, 2-(cyclohexylmethylamino)-4-(5-(trifluoromethyl)-1H-pyrrolo[2,3-b]pyridin-3-yl)pyrimidine-5-carbonitrile]: 3 to 40 nM.
The same measure for `N#Cc1cnc(NCc2nc3ccccc3[nH]2)nc1-c1c[nH]c2ncc(C(F)(F)F)cc12` [Compound I-30, 2-((1H-benzo[d]imidazol-2-yl)methylamino)-4-(5-(trifluoromethyl)-1H-pyrrolo[2,3-b]pyridin-3-yl)pyrimidine-5-carbonitrile]: above 40 nM; for `C[C@@H](Nc1ncc(C#N)c(-c2c[nH]c3ncc(C(F)(F)F)cc23)n1)c1ccc2ccccc2c1` [Compound I-31, 2-((R)-1-(naphthalen-2-yl)ethylamino)-4-(5-(trifluoromethyl)-1H-pyrrolo[2,3-b]pyridin-3-yl)pyrimidine-5-carbonitrile]: 3 to 40 nM; for `N#Cc1cnc(NCc2ccc(C(F)(F)F)nc2)nc1-c1c[nH]c2ncc(C(F)(F)F)cc12` [Compound I-32, 4-(5-(trifluoromethyl)-1H-pyrrolo[2,3-b]pyridin-3-yl)-2-((6-(trifluoromethyl)pyridin-3-yl)methylamino)pyrimidine-5-carbonitrile]: above 40 nM.
The same measure for `C[C@@H](Nc1ncc(C#N)c(-c2c[nH]c3ncc(C(F)(F)F)cc23)n1)c1ccc(Br)cc1` [Compound I-33, 2-((R)-1-(4-bromophenyl)ethylamino)-4-(5-(trifluoromethyl)-1H-pyrrolo[2,3-b]pyridin-3-yl)pyrimidine-5-carbonitrile]: above 40 nM; for `N#Cc1cnc(NC2CCCc3ccccc32)nc1-c1c[nH]c2ncc(C(F)(F)F)cc12` (stereo not shown) [Compound I-34, 2-(1,2,3,4-tetrahydronaphthalen-1-ylamino)-4-(5-(trifluoromethyl)-1H-pyrrolo[2,3-b]pyridin-3-yl)pyrimidine-5-carbonitrile]: above 40 nM; for `CCCC(C)Nc1ncc(C#N)c(-c2c[nH]c3ncc(C(F)(F)F)cc23)n1` (stereo not shown) [Compound I-35, 2-(pentan-2-ylamino)-4-(5-(trifluoromethyl)-1H-pyrrolo[2,3-b]pyridin-3-yl)pyrimidine-5-carbonitrile]: 3 to 40 nM.
For `CC(C)CNc1ncc(C#N)c(-c2c[nH]c3ncc(C(F)(F)F)cc23)n1` [Compound I-36, 2-(isobutylamino)-4-(5-(trifluoromethyl)-1H-pyrrolo[2,3-b]pyridin-3-yl)pyrimidine-5-carbonitrile], the Ki is 3 to 40 nM.
To `N#Cc1cnc(NCc2ccc(O)c(O)c2)nc1-c1c[nH]c2ncc(C(F)(F)F)cc12` [Compound I-37, 2-(3,4-dihydroxybenzylamino)-4-(5-(trifluoromethyl)-1H-pyrrolo[2,3-b]pyridin-3-yl)pyrimidine-5-carbonitrile] belongs above 40 nM.
To `N#Cc1cnc(NC2CCc3ccccc32)nc1-c1c[nH]c2ncc(C(F)(F)F)cc12` (stereo not shown) [Compound I-38, 2-(2,3-dihydro-1H-inden-1-ylamino)-4-(5-(trifluoromethyl)-1H-pyrrolo[2,3-b]pyridin-3-yl)pyrimidine-5-carbonitrile] belongs above 40 nM.
Turning to `CCC(CO)Nc1ncc(C#N)c(-c2c[nH]c3ncc(C(F)(F)F)cc23)n1` (stereo not shown) [Compound I-39, 2-(1-hydroxybutan-2-ylamino)-4-(5-(trifluoromethyl)-1H-pyrrolo[2,3-b]pyridin-3-yl)pyrimidine-5-carbonitrile], the Ki was 3 to 40 nM.
Regarding `CC(=O)NCCNc1ncc(C#N)c(-c2c[nH]c3ncc(C(F)(F)F)cc23)n1` [Compound I-40, N-(2-(5-cyano-4-(5-(trifluoromethyl)-1H-pyrrolo[2,3-b]pyridin-3-yl)pyrimidin-2-ylamino)ethyl)acetamide], the Ki was above 40 nM.
The same measure for `CC(C)Oc1ccc(CNc2ncc(C#N)c(-c3c[nH]c4ncc(C(F)(F)F)cc34)n2)cc1` [Compound I-41, 2-(4-isopropoxybenzylamino)-4-(5-(trifluoromethyl)-1H-pyrrolo[2,3-b]pyridin-3-yl)pyrimidine-5-carbonitrile]: above 40 nM; for `COc1cc(CNc2ncc(C#N)c(-c3c[nH]c4ncc(C(F)(F)F)cc34)n2)ccc1O` [Compound I-42, 2-(4-hydroxy-3-methoxybenzylamino)-4-(5-(trifluoromethyl)-1H-pyrrolo[2,3-b]pyridin-3-yl)pyrimidine-5-carbonitrile]: above 40 nM; for `COC[C@@H](Nc1ncc(C#N)c(-c2c[nH]c3ncc(C(F)(F)F)cc23)n1)c1ccccc1` [Compound I-43, 2-((S)-2-methoxy-1-phenylethylamino)-4-(5-(trifluoromethyl)-1H-pyrrolo[2,3-b]pyridin-3-yl)pyrimidine-5-carbonitrile]: above 40 nM.
To `CC(C)C[C@H](CO)Nc1ncc(C#N)c(-c2c[nH]c3ncc(C(F)(F)F)cc23)n1` [Compound I-44, 2-((R)-1-hydroxy-4-methylpentan-2-ylamino)-4-(5-(trifluoromethyl)-1H-pyrrolo[2,3-b]pyridin-3-yl)pyrimidine-5-carbonitrile] belongs above 40 nM; to `C[C@@H](Nc1ncc(C#N)c(-c2c[nH]c3ncc(C(F)(F)F)cc23)n1)c1cccc(C(F)(F)F)c1` [Compound I-45, 4-(5-(trifluoromethyl)-1H-pyrrolo[2,3-b]pyridin-3-yl)-2-((R)-1-(3-(trifluoromethyl)phenyl)ethylamino)pyrimidine-5-carbonitrile], 3 to 40 nM; to `N#Cc1cnc(NCc2ccc(Oc3ccccc3)cc2)nc1-c1c[nH]c2ncc(C(F)(F)F)cc12` [Compound I-46, 2-(4-phenoxybenzylamino)-4-(5-(trifluoromethyl)-1H-pyrrolo[2,3-b]pyridin-3-yl)pyrimidine-5-carbonitrile], above 40 nM.
The same measure for `CC(C)[C@H](CO)Nc1ncc(C#N)c(-c2c[nH]c3ncc(C(F)(F)F)cc23)n1` [Compound I-47, 2-((R)-1-hydroxy-3-methylbutan-2-ylamino)-4-(5-(trifluoromethyl)-1H-pyrrolo[2,3-b]pyridin-3-yl)pyrimidine-5-carbonitrile]: below 3 nM.
`N#Cc1cnc(NCc2cc(F)cc(F)c2)nc1-c1c[nH]c2ncc(C(F)(F)F)cc12` [Compound I-48, 2-(3,5-difluorobenzylamino)-4-(5-(trifluoromethyl)-1H-pyrrolo[2,3-b]pyridin-3-yl)pyrimidine-5-carbonitrile]: the Ki was above 40 nM.
The same measure for `N#Cc1cnc(NCC2(O)CCCCC2)nc1-c1c[nH]c2ncc(C(F)(F)F)cc12` [Compound I-49, 2-((1-hydroxycyclohexyl)methylamino)-4-(5-(trifluoromethyl)-1H-pyrrolo[2,3-b]pyridin-3-yl)pyrimidine-5-carbonitrile]: 3 to 40 nM; for `N#Cc1cnc(NCc2ccc(Cl)nc2)nc1-c1c[nH]c2ncc(C(F)(F)F)cc12` [Compound I-50, 2-((6-chloropyridin-3-yl)methylamino)-4-(5-(trifluoromethyl)-1H-pyrrolo[2,3-b]pyridin-3-yl)pyrimidine-5-carbonitrile]: above 40 nM; for `CC(Nc1ncc(C#N)c(-c2c[nH]c3ncc(C(F)(F)F)cc23)n1)c1cccnc1` (stereo not shown) [Compound I-51, 2-(1-(pyridin-3-yl)ethylamino)-4-(5-(trifluoromethyl)-1H-pyrrolo[2,3-b]pyridin-3-yl)pyrimidine-5-carbonitrile]: below 3 nM.
To `COc1ccc(C(C)Nc2ncc(C#N)c(-c3c[nH]c4ncc(C(F)(F)F)cc34)n2)cn1` (stereo not shown) [Compound I-52, 2-(1-(6-methoxypyridin-3-yl)ethylamino)-4-(5-(trifluoromethyl)-1H-pyrrolo[2,3-b]pyridin-3-yl)pyrimidine-5-carbonitrile] belongs below 3 nM.
To `N#Cc1cnc(NCc2ccc(-c3cccs3)cc2)nc1-c1c[nH]c2ncc(C(F)(F)F)cc12` [Compound I-54, 2-(4-(thiophen-2-yl)benzylamino)-4-(5-(trifluoromethyl)-1H-pyrrolo[2,3-b]pyridin-3-yl)pyrimidine-5-carbonitrile] belongs above 40 nM; to `N#Cc1cnc(NCc2ccc(-n3cncn3)cc2)nc1-c1c[nH]c2ncc(C(F)(F)F)cc12` [Compound I-55, 2-(4-(1H-1,2,4-triazol-1-yl)benzylamino)-4-(5-(trifluoromethyl)-1H-pyrrolo[2,3-b]pyridin-3-yl)pyrimidine-5-carbonitrile], 3 to 40 nM; to `N#Cc1cnc(NCc2ccc3c(c2)OCO3)nc1-c1c[nH]c2ncc(C(F)(F)F)cc12` [Compound I-56], 3 to 40 nM.
